Assay results: patent US20220143222A1, “SUBCUTANEOUS AND INTRAMUSCULAR ADMINISTRATION OF PYRAZINE COMPOUNDS” (MediBeacon Inc., priority 2020, published 2022)

Legend:
[1] = MB-102 pig plasma concentration after IV dosing; type: in vivo; conditions: pig 48019, IV, 3.2 mpk
From the text: (§1) Juvenile Yorkshire pigs weighing approximately 25 kg were anesthetized, their body temperature stabilized, and an IV port surgically placed. A region approximately half-way along the line between the hip and knee joint was selected as the injection site and prepared by cleaning the skin and removing any exposed hair by shaving the selected area at least twice. Similarly, the site where two Quantum Leap fluorescent sensors (disclosed in U.S. Pat. No. 10,548,521) were to be positioned (chest) was prepared by washing and shaving. After the skin was dry the sensors were attached with commercially available skin adhesive and background skin auto-fluorescence measurements were recorded. After about 20 minutes of background fluorescence collection the subject animal was dosed either intravenously (animal 48019) or subcutaneously (animals 52771, 53701 09802, or 1539) or intramuscularly (09801) with PBS-1× formulated MB-102 at 3.2 mg/kg. Injection of the appropriate volume took place over about a minute. […] At this point glomerular elimination of MB-102 by the kidneys led to a decrease of fluorescence signal over time. Blood samples (1.5 mL) were taken immediately prior to the introduction of MB-102 (0 minutes) and at 15 minute intervals throughout the procedure. Blood was collected in BD vacutainer K2EDTA tubes, spun to plasma and stored at −80° C. until analyzed. Subsequently, the processed plasma samples were thawed, diluted with PBS-1× and analyzed by HPLC or UPLC and the concentration of MB-102 determined using standard analytical techniques. Further details for each animal are provided in the examples that follow.
Subject pig, 48019, the control animal, was prepared as in Example 6 and dosed IV using 8.2 mL of 11.8 mg/mL MB-102 in PBS-1× (bolus over about 2 min).

[2] = Transdermal fluorescence signal at the chest after injection; type: in vivo, pig
From the text: as §1
A sterile Mesoderm needle pack was obtained. The needle array featured five (5), 4 mm×30 gauge (0.30 mm dia) luer-hub needles arranged four (4) in a circular, symmetrical pattern (30 mm diameter) about a central needle and were attached via a distribution channel and a second luer-hub to a primary source syringe (3 mL in total deliverable volume). MB-102 API was formulated as 60 mg/mL of sodium salt in 1×PBS and placed in 5 mL serum cap vials. Immediately prior to dosing, the primary syringe was filled with a slight excess of the required amount of formulated MB-102 to achieve 3.2 mg/kg and the needle cap replaced until the subject animal and fluorescence monitor were ready for the experiment to begin and the injection initiated. Subject pig 52771 was dosed with 1.2 mL of MB-102 formulated in PBS-1× (3.2 mg/kg). […] Subject animal fluorescence was obtained during the entire course of the experiment (8 hrs) and blood samples were collected every 15 minutes, processed and stored at −80° C. Comparison of IV MB-102 plasma concentration versus time and subcutaneous MB-102 (both at 3.2 mg/kg dose) plasma concentration versus time are shown in FIG. 1.
Experimental animal Yorkshire pig, 53701, was subject to subcutaneous (subQ) administration of MB-102 as described in Example 8. […] Plasma sampling was conducted as described in Example 8 and the results (Table 1) are plotted in FIG. 1.
Experimental animal Yorkshire pig, 09802, was subject to subcutaneous (subQ) administration of MB-102 using a single needle in the same protocol as Example 8 but substituting a 2 mL syringe equipped with a single 4 mm×30 g needle. […] Plasma sampling was conducted as described in Example 8 and the results (Table 1) are plotted in FIG. 1.
Experimental animal Yorkshire pig, 09801, was subject to Intramuscular (IM) administration of MB-102 using substantially the same procedure as Example 8, but substituting a 2 mL syringe equipped with a single 13 mm×27 g needle. […] Blood sampling and processing was as described in Example 8 and the results (Table 1) are plotted in FIG. 6.
Experimental animal Yorkshire pig, 1539, was subject to subcutaneous (subQ) administration of MB-102 using a single needle in the same protocol as Example 10. […]

[3] = Storage of concentrated MB-102 salt solution at 4° C. (precipitation); type: physicochemical; conditions: sodium salt, 300 mg per mL water (w/v), 4° C. overnight
Method: MB-102 (0.300 g, 0.81 mmol), was placed in a vial (4.0 mL). Water was added (0.8 mL, D.I.) and the mixture sonicated for a brief period of time. To the mixture was added aqueous 6.25 N NaOH (2 equivalents, 1.62 mmol, 0.24 mL, added in portions; 0.020 mL×12 to effect solution) with stirring and brief periods of sonication. […] The final concentration was 300 mg (2R,2′R)-2,2′-((3,6-diaminopyrazine-2,5-dicarbonyl)bis(azanediyl))bis(3-hydroxypropanoic acid), MB-102 per mL water (w/v).
MB-102 (0.30 g, 0.81 mmol) was weighed into a 5 mL v-vial equipped with a Teflon-covered magnetic spin vane. Choline hydroxide in water (Aldrich, 0.43 g of 46 wt %, 1.62 mmol) was added portion-wise with stirring until a solution was obtained. The total weight of the solution was 0.73 g or 64.2 wt % MB-102 di-choline salt (MW: 578.6).

Nc1nc(C(=O)N[C@H](CO)C(=O)O)c(N)nc1C(=O)N[C@H](CO)C(=O)O [MB-102, 3,6-diamino-2,5-bis{N-[(1R)-1-carboxy-2-hydroxyethyl]carbamoyl}pyrazine]
concentration at 15 min ([1]; Yorkshire, plasma, 3.2 mg/kg, 15 min, read-out: MB-102 Pig Plasma Conc.): 13000 ng/mL
concentration at 30 min ([1]; Yorkshire, plasma, 3.2 mg/kg, 30 min, read-out: MB-102 Pig Plasma Conc.): 9200 ng/mL
concentration at 45 min ([1]; Yorkshire, plasma, 3.2 mg/kg, 45 min, read-out: MB-102 Pig Plasma Conc.): 7830 ng/mL
concentration at 60 min ([1]; Yorkshire, plasma, 3.2 mg/kg, 60 min, read-out: MB-102 Pig Plasma Conc.): 5880 ng/mL
concentration at 75 min ([1]; Yorkshire, plasma, 3.2 mg/kg, 75 min, read-out: MB-102 Pig Plasma Conc.): 5430 ng/mL
concentration at 90 min ([1]; Yorkshire, plasma, 3.2 mg/kg, 90 min, read-out: MB-102 Pig Plasma Conc.): 4680 ng/mL
concentration at 105 min ([1]; Yorkshire, plasma, 3.2 mg/kg, 105 min, read-out: MB-102 Pig Plasma Conc.): 4000 ng/mL
concentration at 120 min ([1]; Yorkshire, plasma, 3.2 mg/kg, 120 min, read-out: MB-102 Pig Plasma Conc.): 3340 ng/mL
concentration at 135 min ([1]; Yorkshire, plasma, 3.2 mg/kg, 135 min, read-out: MB-102 Pig Plasma Conc.): 3250 ng/mL
concentration at 150 min ([1]; Yorkshire, plasma, 3.2 mg/kg, 150 min, read-out: MB-102 Pig Plasma Conc.): 2700 ng/mL
concentration at 165 min ([1]; Yorkshire, plasma, 3.2 mg/kg, 165 min, read-out: MB-102 Pig Plasma Conc.): 2410 ng/mL
concentration at 180 min ([1]; Yorkshire, plasma, 3.2 mg/kg, 180 min, read-out: MB-102 Pig Plasma Conc.): 2200 ng/mL
concentration at 195 min ([1]; Yorkshire, plasma, 3.2 mg/kg, 195 min, read-out: MB-102 Pig Plasma Conc.): 2000 ng/mL
concentration at 210 min ([1]; Yorkshire, plasma, 3.2 mg/kg, 210 min, read-out: MB-102 Pig Plasma Conc.): 1910 ng/mL
concentration at 225 min ([1]; Yorkshire, plasma, 3.2 mg/kg, 225 min, read-out: MB-102 Pig Plasma Conc.): 1690 ng/mL
concentration at 240 min ([1]; Yorkshire, plasma, 3.2 mg/kg, 240 min, read-out: MB-102 Pig Plasma Conc.): 1510 ng/mL
concentration at 255 min ([1]; Yorkshire, plasma, 3.2 mg/kg, 255 min, read-out: MB-102 Pig Plasma Conc.): 1400 ng/mL
concentration at 270 min ([1]; Yorkshire, plasma, 3.2 mg/kg, 270 min, read-out: MB-102 Pig Plasma Conc.): 1320 ng/mL
concentration at 285 min ([1]; Yorkshire, plasma, 3.2 mg/kg, 285 min, read-out: MB-102 Pig Plasma Conc.): 1140 ng/mL
concentration at 300 min ([1]; Yorkshire, plasma, 3.2 mg/kg, 300 min, read-out: MB-102 Pig Plasma Conc.): 1110 ng/mL
concentration at 315 min ([1]; Yorkshire, plasma, 3.2 mg/kg, 315 min, read-out: MB-102 Pig Plasma Conc.): 1000 ng/mL
concentration at 330 min ([1]; Yorkshire, plasma, 3.2 mg/kg, 330 min, read-out: MB-102 Pig Plasma Conc.): 917 ng/mL
concentration at 345 min ([1]; Yorkshire, plasma, 3.2 mg/kg, 345 min, read-out: MB-102 Pig Plasma Conc.): 859 ng/mL
concentration at 360 min ([1]; Yorkshire, plasma, 3.2 mg/kg, 360 min, read-out: MB-102 Pig Plasma Conc.): 819 ng/mL
SUM (plasma conc. over time) ([1]; 15-360 min): 1,188,637 ng/mL*min
time until fluorescence signal first observed ([2]; pig 1539, single needle subcutaneous): after a few minutes
time until fluorescence signal first observed ([2]; pig 09801, single needle intramuscular): after a few minutes
time until fluorescence signal first observed ([2]; pig 09802, single needle subcutaneous): after a few minutes
time until transdermal fluorescent signal detectable ([2]; pig 52771, multi-needle subcutaneous, 3.2 mg/kg): Within a few minutes
time until fluorescence signal first observed ([2]; pig 53701, multi-needle subcutaneous): after a few minutes
time until fluorescent skin signal at the chest observed ([2]; pigs, 3.2 mg/kg IV, subcutaneous or intramuscular, typical): within several minutes post injection
precipitate formation on storage [3]: no precipitate formation
